Experimental data reported in ChEMBL document CHEMBL2057072, “Design, synthesis, and pharmacological evaluation of novel tetrahydroprotoberberine derivatives: selective inhibitors of dopamine D₁ receptor” (Bioorg Med Chem, 2012).

Columns and labels:
D(1A) dopamine receptor [1] = target: T1, D(1A) dopamine receptor (Homo sapiens, UniProt P21728); experiment: Displacement of [3H]SCH23390 from human dopamine D1 receptor expressed in HEK293 cells; assay type: cell-based
D(2) dopamine receptor [2] = target: T2, D(2) dopamine receptor (Homo sapiens, UniProt P14416); experiment: Displacement of [3H]Spiprone from human dopamine D2 receptor expressed in HEK293 cells; assay type: cell-based
T2 sequence (P14416 whole entry): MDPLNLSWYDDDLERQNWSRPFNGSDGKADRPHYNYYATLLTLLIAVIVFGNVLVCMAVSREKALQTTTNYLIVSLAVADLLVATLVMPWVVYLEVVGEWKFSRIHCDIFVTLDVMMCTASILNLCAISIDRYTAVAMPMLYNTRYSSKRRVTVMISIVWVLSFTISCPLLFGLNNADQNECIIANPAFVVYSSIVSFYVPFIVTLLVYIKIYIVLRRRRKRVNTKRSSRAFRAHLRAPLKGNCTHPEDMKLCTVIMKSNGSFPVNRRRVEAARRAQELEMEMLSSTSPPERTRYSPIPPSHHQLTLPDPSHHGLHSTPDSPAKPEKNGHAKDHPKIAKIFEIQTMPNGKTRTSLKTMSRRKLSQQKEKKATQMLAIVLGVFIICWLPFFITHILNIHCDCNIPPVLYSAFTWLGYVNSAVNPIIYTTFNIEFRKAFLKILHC

[3] = target: T3, 5-hydroxytryptamine receptor 1A (Homo sapiens) (UniProt P08908); experiment: Displacement of [3H]-8-OH-DPAT from human 5HT1A receptor expressed in HEK293 cells at 10 uM; assay type: cell-based
T3 sequence (whole entry): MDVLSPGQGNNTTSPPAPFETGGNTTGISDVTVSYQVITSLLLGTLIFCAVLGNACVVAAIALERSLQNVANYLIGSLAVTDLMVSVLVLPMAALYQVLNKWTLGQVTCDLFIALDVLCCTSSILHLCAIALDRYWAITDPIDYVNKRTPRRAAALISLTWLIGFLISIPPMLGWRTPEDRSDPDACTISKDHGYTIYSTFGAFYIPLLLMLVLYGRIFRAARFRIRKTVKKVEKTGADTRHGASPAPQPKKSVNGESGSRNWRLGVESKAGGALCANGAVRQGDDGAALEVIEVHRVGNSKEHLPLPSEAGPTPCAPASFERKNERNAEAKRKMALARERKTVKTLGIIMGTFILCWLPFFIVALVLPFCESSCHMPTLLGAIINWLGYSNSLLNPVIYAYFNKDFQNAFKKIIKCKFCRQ

[4] = target: 5-hydroxytryptamine receptor 2A (Homo sapiens) (UniProt P28223); experiment: Displacement of [3H]Ketanserin from human 5HT2A receptor expressed in HEK293 cells at 10 uM; assay type: cell-based
Sequence of 5-hydroxytryptamine receptor 2A (Homo sapiens) (P28223 whole entry): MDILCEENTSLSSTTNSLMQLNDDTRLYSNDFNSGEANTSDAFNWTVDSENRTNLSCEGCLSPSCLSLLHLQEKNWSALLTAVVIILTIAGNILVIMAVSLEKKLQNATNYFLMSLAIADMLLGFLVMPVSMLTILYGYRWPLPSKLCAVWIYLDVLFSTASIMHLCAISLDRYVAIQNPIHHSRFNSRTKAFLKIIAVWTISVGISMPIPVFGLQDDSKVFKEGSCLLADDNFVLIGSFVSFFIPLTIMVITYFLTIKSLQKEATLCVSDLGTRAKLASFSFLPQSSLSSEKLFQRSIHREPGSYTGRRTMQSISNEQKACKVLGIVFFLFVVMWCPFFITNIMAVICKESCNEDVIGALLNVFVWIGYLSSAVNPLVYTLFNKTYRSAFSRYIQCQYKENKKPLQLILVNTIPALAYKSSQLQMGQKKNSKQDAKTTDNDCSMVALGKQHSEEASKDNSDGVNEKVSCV

D(1A) dopamine receptor [5] = target: D(1A) dopamine receptor (Rattus norvegicus, UniProt P18901); experiment: Agonist activity at D1 receptor in rat striatum assessed as synaptosomal adenylate cyclase activity; assay type: functional, tissue-based
Sequence of D(1A) dopamine receptor (Rattus norvegicus, UniProt P18901) (P18901 whole entry): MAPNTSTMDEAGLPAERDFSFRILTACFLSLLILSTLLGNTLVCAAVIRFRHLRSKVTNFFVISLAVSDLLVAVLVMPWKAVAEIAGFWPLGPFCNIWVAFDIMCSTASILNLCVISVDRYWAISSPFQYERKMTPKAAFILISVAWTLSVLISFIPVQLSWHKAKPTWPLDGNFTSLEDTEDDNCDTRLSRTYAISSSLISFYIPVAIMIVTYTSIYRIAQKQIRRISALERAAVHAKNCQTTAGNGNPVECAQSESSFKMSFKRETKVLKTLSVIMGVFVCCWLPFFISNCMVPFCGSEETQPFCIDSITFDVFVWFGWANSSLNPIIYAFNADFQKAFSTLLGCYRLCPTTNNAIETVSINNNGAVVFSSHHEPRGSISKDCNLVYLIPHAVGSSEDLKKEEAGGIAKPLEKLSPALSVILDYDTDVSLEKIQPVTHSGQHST

D(2) dopamine receptor [6] = target: T2, D(2) dopamine receptor; experiment: Displacement of [3H]Spiprone from human dopamine D2 receptor expressed in HEK293 cells at 10 uM; assay type: cell-based
D(1A) dopamine receptor [7] = target: T1, D(1A) dopamine receptor; experiment: Displacement of [3H]SCH23390 from human dopamine D1 receptor expressed in HEK293 cells at 10 uM; assay type: cell-based
D(1A) dopamine receptor [8] = target: T1, D(1A) dopamine receptor; experiment: Antagonist activity at dopamine D1 receptor assessed as inhibition of [35S]GTPgammaS binding in cell-based assay; assay type: functional
D(1A) dopamine receptor [9] = target: T1, D(1A) dopamine receptor; experiment: Antagonist activity at dopamine D1 receptor assessed as inhibition of [35S]GTPgammaS binding in cell-based assay relative to control; assay type: functional
D(1A) dopamine receptor [10] = target: T1, D(1A) dopamine receptor; experiment: Agonist activity at dopamine D1 receptor assessed as [35S]GTPgammaS binding in cell-based assay relative to control; assay type: functional
[11] = target: T4, 5-hydroxytryptamine receptor 1A (Homo sapiens, UniProt P08908); experiment: Displacement of [3H]-8-OH-DPAT from human 5HT1A receptor expressed in HEK293 cells; assay type: cell-based
T4 sequence (P08908 whole entry): T3 sequence (whole entry)

T1 sequence (P21728 whole entry): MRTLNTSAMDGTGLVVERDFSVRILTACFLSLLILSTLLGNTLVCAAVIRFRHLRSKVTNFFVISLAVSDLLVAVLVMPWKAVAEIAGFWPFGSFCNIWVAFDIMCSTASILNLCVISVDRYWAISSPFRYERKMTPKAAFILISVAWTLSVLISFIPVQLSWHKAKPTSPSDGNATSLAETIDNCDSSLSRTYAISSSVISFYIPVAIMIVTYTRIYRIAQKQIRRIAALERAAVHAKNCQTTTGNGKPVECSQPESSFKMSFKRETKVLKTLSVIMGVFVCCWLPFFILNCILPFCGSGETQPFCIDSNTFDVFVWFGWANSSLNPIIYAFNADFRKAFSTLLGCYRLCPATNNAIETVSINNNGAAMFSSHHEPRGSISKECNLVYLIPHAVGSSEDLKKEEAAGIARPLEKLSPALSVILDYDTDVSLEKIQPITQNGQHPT

| IC50 (D(1A) dopamine receptor [1]) | Ki (D(1A) dopamine receptor [1]) | IC50 (D(2) dopamine receptor [2]) | Ki (D(2) dopamine receptor [2]) | inhibition [3] | inhibition [4] | EC50 (D(1A) dopamine receptor [5]) | inhibition (D(2) dopamine receptor [6]) | inhibition (D(1A) dopamine receptor [7]) | IC50 (D(1A) dopamine receptor [8]) | Imax (D(1A) dopamine receptor [9]) | Emax (D(1A) dopamine receptor [10]) | Ki [11] | Compound |
| --- | --- | --- | --- | --- | --- | --- | --- | --- | --- | --- | --- | --- | --- |
| 12.3 nM | 6.23 nM | 105 nM | 56.2 nM | 89.3% | 45.6% | 41100 nM | – | – | – | – | – | – | COc1cc2c(cc1O)[C@@H]1Cc3ccc(O)c(OC)c3CN1CC2 [STEPHOLIDINE] |
| 142 nM | 74.5 nM | – | – | 57.6% | 31.3% | – | 1.02% | – | – | – | – | – | COc1cc2c(c(OC)c1)CN1CCc3cc4c(cc3[C@@H]1C2)OCO4 |
| – | – | – | – | 70.3% | 72.7% | – | 70.7% | 43.4% | – | – | – | – | COc1cc2c(c(OC)c1OC)[C@@H]1Cc3cc4c(cc3CN1CC2)OCO4 |
| 684 nM | 338 nM | 1160 nM | 224 nM | 54.8% | 36.5% | – | – | – | – | – | – | – | COc1cc2c(cc1OC)[C@@H]1Cc3cc(C)cc(C)c3CN1CC2 |
| – | – | – | – | 1.34% | 21.4% | – | – | 56% | – | – | – | – | COc1ccc2c(c1)C[C@H]1c3c(OC)cc(OC)c(CO)c3CCN1C2 |
| 45.4 nM | 23.8 nM | – | – | 66.9% | 48.8% | – | 51.7% | – | 11800 nM | 82.5% | – | – | COc1cc2c(c(OC)c1)CN1CCc3cc(OC)c(OC)c(OC)c3[C@@H]1C2 |
| 68.9 nM | 35.8 nM | 873 nM | 347 nM | 65.6% | 68.7% | – | – | – | – | – | – | – | COc1ccc2c(c1)C[C@H]1c3cc(O)c(OC)cc3CCN1C2 |
| – | – | – | – | 67.4% | 59.7% | – | 47.2% | 7.37% | – | – | – | – | COc1cc(OC)c2c(c1CO)C[C@H]1c3c(cc(OC)c(OC)c3OC)CCN1C2 |
| – | – | – | – | 37.3% | 13.5% | – | 36% | 86% | – | – | – | – | COc1ccc2c(c1)C[C@H]1c3cc(OCc4ccccc4)c(OC)cc3CCN1C2 |
| – | – | – | – | – | – | – | – | – | – | – | 100% | – | Oc1cc2c(cc1O)C(c1ccccc1)CNCC2 (stereo not given) |
| – | – | – | – | 43.7% | 69.1% | – | 54.2% | 59.3% | – | – | – | – | COc1cc2c(c(OC)c1)CN1CCc3cc(OC)c(OCc4ccccc4)c(OC)c3[C@@H]1C2 |
| – | – | – | – | 5.48% | 20.8% | – | 22.7% | 83.2% | – | – | – | – | COc1ccc2c(c1)C[C@H]1c3cc4c(cc3CCN1C2)OCO4 |
| – | – | – | – | 33.1% | 25.3% | – | – | 48.8% | – | – | – | – | COc1ccc(OC)c2c1C[C@H]1c3c(OC)cc(OC)c(CO)c3CCN1C2 |
| 324 nM | 182 nM | – | – | – | 56.2% | – | 41.8% | – | – | – | – | 600 nM | COc1cc(OC)c2c(c1CO)C[C@H]1c3cc4c(cc3CCN1C2)OCO4 |
| 30.7 nM | 17.3 nM | 514 nM | 147 nM | 80.9% | 18.4% | – | – | – | – | – | – | – | COc1cc2c(cc1O)[C@@H]1Cc3c(CO)c(OC)cc(OC)c3CN1CC2 |
| 189 nM | 106 nM | – | – | 66.9% | 17.2% | – | 3.48% | – | – | – | – | – | COc1cc2c(c(OC)c1)CN1CCc3cc(OC)c(OC)cc3[C@@H]1C2 |
| – | – | – | – | 57.4% | 33.5% | – | 10.2% | 81.9% | – | – | – | – | COc1ccc2c(c1)C[C@H]1c3cc(OC)c(OC)cc3CCN1C2 |
| 56.4 nM | 28.9 nM | 456 nM | 161 nM | 74.5% | 27.1% | – | – | – | – | – | – | – | COc1cc2c(cc1O)[C@@H]1Cc3cc(C)cc(C)c3CN1CC2 |
| 2920 nM | 1440 nM | – | – | 28.4% | 19.9% | – | 77.4% | – | – | – | – | – | COc1cc2c(cc1OC)C1Cc3cc(C)cc(C)c3CN1CC2 (racemic) |
| 98.1 nM | 52.3 nM | – | – | 44.9% | 51.6% | – | 58.8% | – | – | – | – | – | COc1cc2c(c(OC)c1)CN1CCc3cc(OC)c(O)c(OC)c3[C@@H]1C2 |
| – | – | – | – | – | 16.9% | – | – | 17.4% | – | – | – | – | COc1cc(OC)c2c(c1CO)CCN1Cc3cc4c(cc3C[C@@H]21)OCO4 |
| 14.3 nM | 7.97 nM | – | – | 61.7% | 25% | – | 81.9% | – | 23300 nM | 94.2% | – | – | COc1cc2c(c(OC)c1)CN1CCc3cc(OC)cc(OC)c3[C@@H]1C2 |
| – | – | – | – | – | – | – | – | – | – | 80% | – | – | CN1CCc2cc(Cl)c(O)cc2[C@@H](c2ccccc2)C1 |
| 114 nM | 64.1 nM | – | – | – | 24.1% | – | 39.5% | – | – | – | – | 730 nM | COc1cc2c(cc1OC)[C@@H]1Cc3c(CO)c(OC)cc(OC)c3CN1CC2 |

| Compound | IC50 (D(1A) dopamine receptor [1]) | Ki (D(1A) dopamine receptor [1]) | IC50 (D(2) dopamine receptor [2]) | Ki (D(2) dopamine receptor [2]) | inhibition [3] | inhibition [4] | EC50 (D(1A) dopamine receptor [5]) | inhibition (D(2) dopamine receptor [6]) | inhibition (D(1A) dopamine receptor [7]) | IC50 (D(1A) dopamine receptor [8]) | Imax (D(1A) dopamine receptor [9]) | Emax (D(1A) dopamine receptor [10]) | Ki [11] |
| --- | --- | --- | --- | --- | --- | --- | --- | --- | --- | --- | --- | --- | --- |
| COc1cc2c(c(OC)c1)CN1CCc3cc(OC)c(O)cc3[C@@H]1C2 | 4.86 nM | – | – | – | 56.9% | 32.4% | – | 83.3% | – | 1380 nM | 94.3% | – | – |
